The record followed here is PubChem BioAssay AID330 (DTP/NCI, 2004).

The subject of the assay is P388 leukemia ip, CD2F1 mice, survival T/C. The experiment in a line: NCI In Vivo Anticancer Drug Screen. Data for tumor model P388 Leukemia (intraperitoneal) in CD2F1 (CDF1) mice. The settings on record: endpoint: median survival time, higher = longer survival. Put shortly: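 Mice carrying the transplanted tumor received test compound or vehicle. Survival was recorded in each group, and the value is the treated-group measurement divided by that of the vehicle-treated control group.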

Setting [1] is: dose: 50.0 mg/kg/injection, schedule: Q01DX009 (ip), vehicle: Klucel (hydroxypropylcellulose) (HPC).
Where [2] appears, read: dose: 100.0 mg/kg/injection, schedule: Q01DX009 (ip), vehicle: Klucel (hydroxypropylcellulose) (HPC).
[3] abbreviates: dose: 50.0 mg/kg/injection, schedule: Q01DX009 (ip), vehicle: saline.
The mark [4] stands for this setting: dose: 100.0 mg/kg/injection, schedule: Q01DX009 (ip), vehicle: saline.
[5] abbreviates: dose: 200.0 mg/kg/injection, schedule: Q01DX009 (ip), vehicle: saline.
Setting [6] is: dose: 100.0 mg/kg/injection, schedule: Q01DX009 (ip), vehicle: saline with Tween-80.
[7] abbreviates: dose: 200.0 mg/kg/injection, schedule: Q04DX003 (ip), vehicle: saline with Tween-80.
Where [8] appears, read: dose: 50.0 mg/kg/injection, schedule: Q01DX005 (ip), vehicle: saline with Tween-80.
The mark [9] stands for this setting: dose: 100.0 mg/kg/injection, schedule: Q01DX005 (ip), vehicle: saline with Tween-80.
Where [10] appears, read: dose: 60.0 mg/kg/injection, schedule: Q01DX005 (ip), vehicle: saline with Tween-80.
The mark [11] stands for this setting: dose: 120.0 mg/kg/injection, schedule: Q01DX005 (ip), vehicle: saline with Tween-80.
[12] abbreviates: dose: 240.0 mg/kg/injection, schedule: Q01DX005 (ip), vehicle: saline with Tween-80.

Values joined by “and” are separate entries in the source; they are usually repeats but may differ in a detail not shown here. Equal values may be shown once. Toxic doses and inconclusive results are not listed.

As to `COc1cc2c(O)c3c(c(-c4ccc5c(c4)OCO5)c2cc1OC)C(=O)OC3`, the T/C is 91 % of control (dose: 25.0 mg/kg/injection, schedule: Q01DX009 (ip), vehicle: Klucel (hydroxypropylcellulose) (HPC)); 100 % of control under setting [1]; 100 % of control under setting [2]; 117 % of control (dose: 200.0 mg/kg/injection, schedule: Q01DX009 (ip), vehicle: Klucel (hydroxypropylcellulose) (HPC)).

For `CCOC(=O)c1ccc(N=Cc2cccs2)cc1`, the T/C runs as follows: under setting [3], 88 % of control; under setting [4], 92 % of control; under setting [5], 102 % of control.

Regarding `CC(=O)N(C(C)=O)N1C(=O)C2C3C=CC(C4CC34)C2C1=O` (stereo not given), the T/C is, setting by setting: under setting [1], 92 % of control; under setting [2], 94 % of control.

Consider `O=[N+]([O-])c1ccc(-c2csc(COc3ccccc3)n2)cc1`, for which the T/C was 98 % of control (dose: 50.0 mg/kg/injection, schedule: Q01DX009 (ip), vehicle: gum acacia); 101 % of control (dose: 100.0 mg/kg/injection, schedule: Q01DX009 (ip), vehicle: gum acacia); 96 % of control (dose: 200.0 mg/kg/injection, schedule: Q01DX009 (ip), vehicle: gum acacia).

On to `Clc1ccc(N=Cc2ccc(C=Nc3ccc(Cl)cc3Cl)cc2)c(Cl)c1`, for which the T/C by setting is: (dose: 12.5 mg/kg/injection, schedule: Q01DX009 (ip), vehicle: saline) 94 % of control; (dose: 25.0 mg/kg/injection, schedule: Q01DX009 (ip), vehicle: saline) 94 % of control; under setting [3], 100 % of control and 105 % of control; under setting [4], 88 % of control; under setting [5], 92 % of control.

`O=c1[nH]c(=O)n(COCc2ccccc2)cc1F`: the T/C is, setting by setting: (dose: 25.0 mg/kg/injection, schedule: Q04DX003 (ip), vehicle: saline) 98 % of control; (dose: 50.0 mg/kg/injection, schedule: Q04DX003 (ip), vehicle: saline) 98 % of control; (dose: 100.0 mg/kg/injection, schedule: Q04DX003 (ip), vehicle: saline) 98 % of control and 97 % of control; (dose: 200.0 mg/kg/injection, schedule: Q04DX003 (ip), vehicle: saline) 95 % of control; (dose: 400.0 mg/kg/injection, schedule: Q04DX003 (ip), vehicle: saline) 98 % of control.

As to `CC1CN1P(=S)(N1CCCC1)N1CC1C` (stereo not given), the T/C (dose: 64.0 mg/kg/injection, schedule: Q04DX003 (ip), vehicle: saline with Tween-80) is 116 % of control; the T/C (dose: 66.0 mg/kg/injection, schedule: Q01DX009 (ip), vehicle: saline with Tween-80) is 150 % of control; the T/C under setting [6] was 150 % of control; the T/C (dose: 150.0 mg/kg/injection, schedule: Q01DX009 (ip), vehicle: saline with Tween-80) was 86 % of control; the T/C under setting [7] was 159 % of control; the T/C (dose: 256.0 mg/kg/injection, schedule: Q04DX003 (ip), vehicle: saline with Tween-80) is 100 % of control.

Turning to `CC(C)NC(=O)c1ccc(N/N=[N+](/C)[O-])cc1`, the T/C is 97 % of control (dose: 6.25 mg/kg/injection, schedule: Q01DX005 (ip), vehicle: saline with Tween-80); 99 % of control (dose: 12.5 mg/kg/injection, schedule: Q01DX005 (ip), vehicle: saline with Tween-80); 98 % of control (dose: 25.0 mg/kg/injection, schedule: Q01DX005 (ip), vehicle: saline with Tween-80); 92 % of control under setting [8]; 102 % of control under setting [9].

`C=C(C)C(C)CC(NC(C)=O)C(=O)OC` (stereo not given): the T/C is, setting by setting: (dose: 62.5 mg/kg/injection, schedule: Q04DX002 (ip), vehicle: Klucel (hydroxypropylcellulose) (HPC)) 96 % of control; (dose: 125.0 mg/kg/injection, schedule: Q04DX002 (ip), vehicle: Klucel (hydroxypropylcellulose) (HPC)) 99 % of control; (dose: 250.0 mg/kg/injection, schedule: Q04DX002 (ip), vehicle: Klucel (hydroxypropylcellulose) (HPC)) 93 % of control.

In the case of `OCC1(CO)C(O)C2CCN1CC2` (stereo not given), the T/C by setting is: (dose: 100.0 mg/kg/injection, schedule: Q04DX003 (ip), vehicle: Klucel (hydroxypropylcellulose) (HPC)) 108 % of control; (dose: 200.0 mg/kg/injection, schedule: Q04DX003 (ip), vehicle: Klucel (hydroxypropylcellulose) (HPC)) 110 % of control; (dose: 400.0 mg/kg/injection, schedule: Q04DX003 (ip), vehicle: Klucel (hydroxypropylcellulose) (HPC)) 108 % of control.

On to `NC(=O)CNC(=O)NC(Cc1ccccc1)C(=O)O` (stereo not given), for which the T/C is, setting by setting: under setting [8], 105 % of control; under setting [9], 105 % of control; (dose: 200.0 mg/kg/injection, schedule: Q01DX005 (ip), vehicle: saline with Tween-80) 86 % of control.

Take `CCOC(C)c1nc2c([nH]1)c(=O)n(C)c(=O)n2C` (stereo not given): the T/C was 99 % of control (dose: 60.0 mg/kg/injection, schedule: Q01DX005 (ip), vehicle: saline); 101 % of control (dose: 120.0 mg/kg/injection, schedule: Q01DX005 (ip), vehicle: saline); 95 % of control (dose: 240.0 mg/kg/injection, schedule: Q01DX005 (ip), vehicle: saline).

`CN(C)P1(=S)OCC(C(C)(C)C)CN1C` (stereo not given): the T/C is, setting by setting: (dose: 100.0 mg/kg/injection, schedule: Q04DX003 (ip), vehicle: saline with Tween-80) 102 % of control; under setting [7], 112 % of control.

As for `CN1CCCC(C(O)c2ccccc2)S1(=O)=O` (stereo not given), the T/C is, setting by setting: (dose: 50.0 mg/kg/injection, schedule: Q01DX009 (ip), vehicle: saline with Tween-80) 96 % of control; under setting [6], 96 % of control; (dose: 200.0 mg/kg/injection, schedule: Q01DX009 (ip), vehicle: saline with Tween-80) 101 % of control.

Consider `c1ccc(-c2n[nH]c(-c3[nH]nc(-c4ccccc4)c3-c3ccccc3)c2-c2ccccc2)cc1`, for which the T/C was 100 % of control under setting [10], 103 % of control under setting [11] and 101 % of control under setting [12].

In the case of `Cc1cc(C(=O)O)ccc1S(=O)(=O)F`, the T/C under setting [10] is 101 % of control and the T/C under setting [11] is 105 % of control.

As for `COC(=O)C(C)NC(=O)C(C)NC(=O)c1cnc2ccccc2n1` (stereo not given), the T/C under setting [10] was 97 % of control, the T/C under setting [11] was 99 % of control and the T/C under setting [12] is 111 % of control.

With `Nc1c(O)c(S(=O)(=O)O)c(O)c2c1C(=O)c1ccccc1C2=O`, the T/C runs as follows: under setting [10], 100 % of control; under setting [11], 98 % of control.

In the case of `O=[N+]([O-])c1ccc(-n2nnc3ccccc32)nc1`, the T/C under setting [3] was 108 % of control, the T/C under setting [4] was 99 % of control and the T/C under setting [5] is 99 % of control.

For the compound `CC(=O)Oc1ccccc1C(=O)OC1CC(C)CCC1C(C)C` (stereo not given), the T/C runs as follows: (dose: 12.5 mg/kg/injection, schedule: Q01DX005 (ip), vehicle: Klucel (hydroxypropylcellulose) (HPC)) 99 % of control; (dose: 25.0 mg/kg/injection, schedule: Q01DX005 (ip), vehicle: Klucel (hydroxypropylcellulose) (HPC)) 106 % of control; (dose: 50.0 mg/kg/injection, schedule: Q01DX005 (ip), vehicle: Klucel (hydroxypropylcellulose) (HPC)) 88 % of control and 94 % of control; (dose: 200.0 mg/kg/injection, schedule: Q01DX005 (ip), vehicle: Klucel (hydroxypropylcellulose) (HPC)) 103 % of control.

Regarding `CC1(C)N=NC([Si](C)(C)C)=C1C(=O)c1ccccc1`, the T/C by setting is: (dose: 60.0 mg/kg/injection, schedule: Q01DX005 (ip), vehicle: Klucel (hydroxypropylcellulose) (HPC)) 101 % of control; (dose: 120.0 mg/kg/injection, schedule: Q01DX005 (ip), vehicle: Klucel (hydroxypropylcellulose) (HPC)) 98 % of control; (dose: 240.0 mg/kg/injection, schedule: Q01DX005 (ip), vehicle: Klucel (hydroxypropylcellulose) (HPC)) 105 % of control.

As to `OCN(CO)c1nc(CCC(Cl)(Cl)Cl)nc(N(CO)CO)n1`, the T/C reads like this: (dose: 12.5 mg/kg/injection, schedule: Q01DX009 (ip), vehicle: distilled water + Tween-80) 96 % of control; (dose: 25.0 mg/kg/injection, schedule: Q01DX009 (ip), vehicle: distilled water + Tween-80) 99 % of control; (dose: 50.0 mg/kg/injection, schedule: Q01DX009 (ip), vehicle: distilled water + Tween-80) 114 % of control; (dose: 100.0 mg/kg/injection, schedule: Q01DX009 (ip), vehicle: distilled water + Tween-80) 116 % of control; (dose: 200.0 mg/kg/injection, schedule: Q01DX009 (ip), vehicle: distilled water + Tween-80) 89 % of control.
